Measurements as given in patent US7993638B2, “Cancer treatment combining lymphodepleting agent with CTLs and cytokines” (Janssen Pharmaceutica NV, priority 2006, dated 2011).

Experiments:
[1] = system: lymphocytes; conditions: cited from earlier work
[2] = subcutaneous versus IV; cited from earlier work
[3] = system: lymphocytes; conditions: […] s.c., 5 consecutive days (total 0.7 mg/kg), hairy cell leukemia patients; cited from earlier work
[4] = 0.07 mg/kg/day x 5 days monthly for 6 months, cited from earlier work
[5] = system: class I and melanoma-associated antigen expression; assay: Study 2: IHC stains of serial biopsy samples after 5-day course of IFN-alpha; assay type: in vivo, human; conditions: 10 MU/m^2 s.c., five day course; serial biopsies of a single patient
Description: Interferon-alpha (IFN-α) has a broad spectrum of immunomodulatory and antiproliferative effects in a variety of malignancies. It is believed that one mechanism of action of IFN-α is the upregulation of tumor antigen expression on melanoma cells. It has the ability to enhance the expression of immunologically important molecules on the surface of the tumor. These include the MHC antigens, accessory molecules, as well as tumor-associated antigens.^25-27 These immunomodulatory effects may improve the activity of the immune system, including both antibodies and lymphocytes, to recognize and attack tumor cells in vivo. […] It is believed that these two modalities of immunotherapy may act synergistically. […] The same 5-day course in clinical study was included in Study 3.

[6] = administered for 4 monthly courses

Compound | lymphopenia ([1]; MS patients) | time at which lymphocyte levels begin to recover [1, 6] [months] | time to lymphocyte nadir [1, 6] [months] | pharmacokinetic and therapeutic results of subcutaneous route [2] | safety [3] | haematological toxicity ([4]; cumulative 2.1 mg/kg) | patients with mild segmental herpes zoster ([4]; 27 patients in drug arm, one case on placebo) | upregulation of class I and melanoma-associated antigen expression (IHC) [5]
Nc1nc(Cl)nc2c1ncn2[C@H]1C[C@H](O)[C@@H](CO)O1 [cladribine, 2-chloro-2′deoxy-β-D-adenosine] | observed in all patients | ≤ 6 | 5 | entirely equivalent to the IV route | safe | no individual cases of significant thrombocytopenia, anemia granulocytopenia or generalized marrow suppression | two | –
IFN-α | – | – | – | – | – | – | – | sufficient to upregulate both class I and melanoma-associated antigen expression
